Source: patent publication US20090176817A1, “Method of Treatment of Diarrhea-Predominant Irritable Bowel Syndrome in a Subject” (priority 2005, published 2009)

Tested on: diarrhea-predominant IBS subjects
Test: Study S241.3.009: weekly diary questions on adequate relief
Format: in vivo, human
Conditions: 2 mg TID, ITT; for Number of months a subject was a responder during Months 1 to 3: IBS symptoms, One month / Number of months a subject was a responder during Months 1 to 3: IBS symptoms, Three months / Number of months a subject was a responder during Months 1 to 3: IBS symptoms, Two months / Number of months a subject was a responder during Months 1 to 3: IBS symptoms, Zero months / Number of months a subject was a responder during Months 1 to 3: Abdominal pain/discomfort, One month / Number of months a subject was a responder during Months 1 to 3: Abdominal pain/discomfort, Three months / Number of months a subject was a responder during Months 1 to 3: Abdominal pain/discomfort, Two months / Number of months a subject was a responder during Months 1 to 3: Abdominal pain/discomfort, Zero months / Number of months a subject was a responder during Months 1 to 3: Abnormal bowel habits, One month / Number of months a subject was a responder during Months 1 to 3: Abnormal bowel habits, Three months / Number of months a subject was a responder during Months 1 to 3: Abnormal bowel habits, Two months / Number of months a subject was a responder during Months 1 to 3: Abnormal bowel habits, Zero months / Responder rate, adequate relief of IBS symptoms / Responder rate, adequate relief of abdominal pain/discomfort / Responder rate, adequate relief of abnormal bowel habits: monthly LOCF imputation; for Number of subjects who were responders during the 26-week treatment period: Adequate relief of IBS symptoms / Number of subjects who were responders during the 26-week treatment period: Adequate relief of abdominal pain/discomfort / Number of subjects who were responders during the 26-week treatment period: Adequate relief of abnormal bowel habits: observed case
Description: Study S241.3.009 was a Phase III, a double-blind, placebo-controlled, randomized, multinational study to investigate the safety and efficacy of 2 mg TID of cilansetron over 26 weeks in diarrhea-predominant IBS subjects. The study was conducted in 146 multinational study centers. A total of 1307 subjects consented to participate, and 806 subjects were randomized. A total of 792 subjects were analyzed for efficacy and 799 subjects were analyzed for safety. Diagnosis and main criteria for inclusion were IBS subjects satisfying the Rome I criteria (1992); the diarrhea-predominant sub-population of the Rome II criteria; and a minimum abdominal pain/discomfort, stool frequency and consistency determined during the run-in period. Subjects were treated with cilansetron 2 mg tablets given orally TID or matching placebo tablets given orally TID for 26 weeks.
The primary efficacy parameter was the overall response rate for IBS symptoms, based on the weekly question concerning adequate relief of IBS symptoms (abdominal pain/discomfort, abnormal bowel habits) over the 26 weeks period. A responder was a subject who responded “yes” at least 50% of the time during his/her treatment period, with minimum treatment duration of four weeks. The two main secondary efficacy parameters were overall responder rate based on the weekly question on adequate relief of abdominal pain/discomfort and abnormal bowel habits during the 26-week treatment period. The onset of action of cilansetron was also examined using daily diary data (stool frequency, and ratings of urgency and severity) during the initial 8 weeks of trial participation. An additional key secondary efficacy parameter was the number of months (one month equals four weeks) up to six months (24-weeks) that a subject was a responder for IBS symptoms, where a responder was defined as a subject who answered the weekly question with “yes” at least twice for that month. The responder rate for the weekly diary questions on adequate relief at each month and all months, the adequate relief rate, the number of subjects with adequate relief by week, daily diary questions, IBS-QOL scores, and the interruption of activities were also assessed. Safety was evaluated by physical examination, ECG, vital signs, laboratory evaluations, concomitant medications, and AEs.
Studies S24 1.3.OO6, S24 1.3.0 1 1, and S24 1.3.009 used the following efficacy measurements: • The subjects answered the following three questions with “yes” or “no” using a phone diary at the end of each week: • a) During the last week, did you experience adequate relief of your IBS symptoms, such as abdominal pain, abdominal discomfort, abnormal bowel habits? • b) During the last week, did you experience adequate relief of your abdominal pain and/or discomfort? • c) During the last week, did you experience adequate relief of your abnormal bowel habits? • The subjects rated the following symptoms using the phone diary at the end of each day: • abdominal pain/discomfort (five-point scale); • stool consistency (seven-point Bristol Stool Scale); • stool frequency (number of bowel movements each day); • urgency (five-point scale); • straining (yes or no); • feeling of incomplete defecation (yes or no); • bloating or feeling of abdominal distension (five-point scale). • In Studies S241 A006 and S241.3.009, subjects completed the IBS-QOL Survey at Baseline (Day 1) and at the end of treatment. In Study S24 1.3.0 1 1, subjects completed the IBS-QOL Survey at Baseline (Day 1), at the end of the three-month treatment period, and at the end of rerandomized treatment.
In all three pivotal efficacy studies, the primary and main secondary efficacy parameters were based on the weekly diary questions on adequate relief and included the following: • 1. Number of months (one month equals four weeks) that a subject was a responder for the weekly diary questions on adequate relief. […]

[1] = Duration of IBS: >24 months to ≦48 months
[2] = Duration of IBS: >48 months to ≦120 months

Q: How did the “Number of months a subject was a responder during Months 1 to 3: IBS symptoms, One month” value (“Number … IBS symptoms, One month” below) [1] turn out when `Cc1nccn1C[C@H]1CCc2c(c3cccc4c3n2CCC4)C1=O` [Cilansetron, (R)-(−)-4,5,6,8,9,10-hexahydro-10-[(2-methyl-1H-imidazol-1-yl)methyl]-11H-pyrido-[3,2,1-jk]-carbazol-11-one] was run?
A: 9 (9) n (%)

Q: What about the “Number of months a subject was a responder during Months 1 to 3: IBS symptoms, Three months” value (shortened to “Number … IBS symptoms, Three months”) [1] of the same molecule?
A: 35 (36) n (%)

Q: And the “Number of months a subject was a responder during Months 1 to 3: IBS symptoms, Two months” value (“Number … IBS symptoms, Two months” below) [1]?
A: 21 (22) n (%)

Q: What about the “Number of months a subject was a responder during Months 1 to 3: IBS symptoms, Zero months” value (“Number … IBS symptoms, Zero months” below) [1] of the same molecule?
A: 31 (32) n (%)

Q: What about the “Number of subjects who were responders during the 26-week treatment period: Adequate relief of IBS symptoms” value (“Number … of IBS symptoms” for short) [1] of the same molecule?
A: 56 (58) n (%)

Q: And the “Number of subjects who were responders during the 26-week treatment period: Adequate relief of abdominal pain/discomfort” value (shortened to “Number … of abdominal pain/discomfort”) [1]?
A: 60 (63) n (%)

Q: And the “Number of subjects who were responders during the 26-week treatment period: Adequate relief of abnormal bowel habits” value (“Number … of abnormal bowel habits” for short) [1]?
A: 63 (66) n (%)

Q: And the “Number of months a subject was a responder during Months 1 to 3: Abdominal pain/discomfort, One month” value (“Number … Abdominal pain/discomfort, One month” below) [2]?
A: 21 (16) n (%)

Q: What about the “Number of months a subject was a responder during Months 1 to 3: Abdominal pain/discomfort, Three months” value (“Number … Abdominal pain/discomfort, Three months” for short) [2] of the same molecule?
A: 45 (34) n (%)

Q: And the “Number of months a subject was a responder during Months 1 to 3: Abdominal pain/discomfort, Two months” value (“Number … Abdominal pain/discomfort, Two months” for short) [2]?
A: 23 (18) n (%)

Q: What about the “Number of months a subject was a responder during Months 1 to 3: Abdominal pain/discomfort, Zero months” value (shortened to “Number … Abdominal pain/discomfort, Zero months”) [2] of the same molecule?
A: 42 (32) n (%)

Q: And the “Number of months a subject was a responder during Months 1 to 3: Abnormal bowel habits, One month” value (“Number … Abnormal bowel habits, One month” for short) [2]?
A: 19 (15) n (%)

Q: What about the “Number of months a subject was a responder during Months 1 to 3: Abnormal bowel habits, Three months” value (from here on “Number … Abnormal bowel habits, Three months”) [2] of the same molecule?
A: 51 (39) n (%)

Q: And the “Number of months a subject was a responder during Months 1 to 3: Abnormal bowel habits, Two months” value (“Number … Abnormal bowel habits, Two months” for short) [2]?
A: 26 (20) n (%)

Q: And the “Number of months a subject was a responder during Months 1 to 3: Abnormal bowel habits, Zero months” value (shortened to “Number … Abnormal bowel habits, Zero months”) [2]?
A: 35 (27) n (%)

Q: And the “Number … IBS symptoms, One month” value [2]?
A: 16 (12) n (%)

Q: What about the “Number … IBS symptoms, Three months” value [2] of the same molecule?
A: 46 (35) n (%)

Q: And the “Number … IBS symptoms, Two months” value [2]?
A: 28 (21) n (%)

Q: And the “Number … IBS symptoms, Zero months” value [2]?
A: 41 (31) n (%)

Q: What about the “Number … of IBS symptoms” value [2] of the same molecule?
A: 72 (55) n (%)

Q: What about the “Number … of abdominal pain/discomfort” value [2] of the same molecule?
A: 68 (52) n (%)

Q: What about the “Number … of abnormal bowel habits” value [2] of the same molecule?
A: 79 (60) n (%)

Q: What about the “Number … Abdominal pain/discomfort, One month” value (Duration of IBS: >120 months) of the same molecule?
A: 15 (21) n (%)

Q: And the “Number … Abdominal pain/discomfort, Three months” value (Duration of IBS: >120 months)?
A: 22 (31) n (%)

Q: And the “Number … Abdominal pain/discomfort, Two months” value (Duration of IBS: >120 months)?
A: 15 (21) n (%)

Q: And the “Number … Abdominal pain/discomfort, Zero months” value (Duration of IBS: >120 months)?
A: 20 (28) n (%)

Q: And the “Number … Abnormal bowel habits, One month” value (Duration of IBS: >120 months)?
A: 10 (14) n (%)

Q: And the “Number … Abnormal bowel habits, Three months” value (Duration of IBS: >120 months)?
A: 27 (38) n (%)

Q: What about the “Number … Abnormal bowel habits, Two months” value (Duration of IBS: >120 months) of the same molecule?
A: 14 (19) n (%)

Q: What about the “Number … Abnormal bowel habits, Zero months” value (Duration of IBS: >120 months) of the same molecule?
A: 21 (29) n (%)

Q: What about the “Number … IBS symptoms, One month” value (Duration of IBS: >120 months) of the same molecule?
A: 14 (19) n (%)

Q: And the “Number … IBS symptoms, Three months” value (Duration of IBS: >120 months)?
A: 23 (32) n (%)

Q: And the “Number … IBS symptoms, Two months” value (Duration of IBS: >120 months)?
A: 15 (21) n (%)

Q: And the “Number … IBS symptoms, Zero months” value (Duration of IBS: >120 months)?
A: 20 (28) n (%)

Q: And the “Number … of IBS symptoms” value (Duration of IBS: >120 months)?
A: 40 (56) n (%)

Q: And the “Number … of abdominal pain/discomfort” value (Duration of IBS: >120 months)?
A: 41 (57) n (%)

Q: What about the “Number … of abnormal bowel habits” value (Duration of IBS: >120 months) of the same molecule?
A: 42 (58) n (%)

Q: And the “Number … Abdominal pain/discomfort, One month” value (Duration of IBS: ≦24 months)?
A: 11 (11) n (%)

Q: What about the “Number … Abdominal pain/discomfort, Three months” value (Duration of IBS: ≦24 months) of the same molecule?
A: 55 (57) n (%)

Q: And the “Number … Abdominal pain/discomfort, Two months” value (Duration of IBS: ≦24 months)?
A: 13 (14) n (%)

Q: What about the “Number … Abdominal pain/discomfort, Zero months” value (Duration of IBS: ≦24 months) of the same molecule?
A: 17 (18) n (%)

Q: And the “Number … Abnormal bowel habits, One month” value (Duration of IBS: ≦24 months)?
A: 9 (9) n (%)

Q: What about the “Number … Abnormal bowel habits, Three months” value (Duration of IBS: ≦24 months) of the same molecule?
A: 51 (53) n (%)

Q: And the “Number … Abnormal bowel habits, Two months” value (Duration of IBS: ≦24 months)?
A: 18 (19) n (%)

Q: And the “Number … Abnormal bowel habits, Zero months” value (Duration of IBS: ≦24 months)?
A: 18 (19) n (%)

Q: And the “Number … IBS symptoms, One month” value (Duration of IBS: ≦24 months)?
A: 16 (17) n (%)

Q: What about the “Number … IBS symptoms, Three months” value (Duration of IBS: ≦24 months) of the same molecule?
A: 46 (48) n (%)

Q: What about the “Number … IBS symptoms, Two months” value (Duration of IBS: ≦24 months) of the same molecule?
A: 16 (17) n (%)

Q: What about the “Number … IBS symptoms, Zero months” value (Duration of IBS: ≦24 months) of the same molecule?
A: 18 (19) n (%)

Q: And the “Number … of IBS symptoms” value (Duration of IBS: ≦24 months)?
A: 66 (69) n (%)

Q: And the “Number … of abdominal pain/discomfort” value (Duration of IBS: ≦24 months)?
A: 70 (73) n (%)

Q: What about the “Number … of abnormal bowel habits” value (Duration of IBS: ≦24 months) of the same molecule?
A: 69 (72) n (%)

Q: And the “Responder rate, adequate relief of IBS symptoms” value (“Responder rate … of IBS symptoms” for short) (Each month of Months 1 to 3)?
A: 150 (38) n (%)

Q: What about the “Responder rate, adequate relief of abdominal pain/discomfort” value (Each month of Months 1 to 3) of the same molecule?
A: 159 (40) n (%)

Q: What about the “Responder rate, adequate relief of abnormal bowel habits” value (Each month of Months 1 to 3) of the same molecule?
A: 165 (42) n (%)

Q: What about the “Responder rate … of IBS symptoms” value (Each month of Months 1 to 6) of the same molecule?
A: 121 (31) n (%)

Q: And the “Responder rate, adequate relief of abdominal pain/discomfort” value (Each month of Months 1 to 6)?
A: 133 (34) n (%)

Q: What about the “Responder rate, adequate relief of abnormal bowel habits” value (Each month of Months 1 to 6) of the same molecule?
A: 136 (34) n (%)

Q: And the “Responder rate … of IBS symptoms” value (Each month of Months 4 to 6)?
A: 193 (49) n (%)

Q: What about the “Responder rate, adequate relief of abdominal pain/discomfort” value (Each month of Months 4 to 6) of the same molecule?
A: 202 (51) n (%)
